In US12116371B2, “Substituted pyridines as irreversible inhibitors of menin-MLL interaction” (BIOMEA FUSION, INC., priority 2018, dated 2024):
Like-named read-outs stand apart in the source and are kept apart here.

Columns and labels:
MOLM-13 (MLL-AF9) cells [1] = assay: Cell proliferation inhibition, CellTiterGlo viability assay, 4 days (Example 102); type: cell-based, human; settings: 4 days treatment
Text: (§1) The objective of the study was to evaluate the ability of compounds of the invention, inhibitors of Menin/MLL interaction to inhibit cell proliferation. The proliferation inhibitory effect was investigated in two human MLL-leukemia cells selected on the bases of MLL fusion protein and listed in Table 1. HL-60 cell line was used as negative control (Table 3).
(§2) ATP is present in all metabolically active cells and is considered as a marker for cell viability and proliferation. The metabolic cell activity was determined using the CellTiter-Glo kit from Promega, an ATP monitoring system based on the production of luminescence by the reaction of ATP with added UltraGlo® recombinant luciferase (Kawano et al., 2016), according to the supplier's experimental recommendations.
(§3) The described assay evaluates the ability of representative compounds of invention to inhibit the cell proliferation in the human MLL-leukemia cells plus a negative control cell line.
(§4) The assay provides potency values (IC50) for each test compound at a single time point Day 4 (T4).
(§5) Seven concentrations of the NCEs (2.00E-05-6.67E-06-2.22E-06-7.41E-07-2.47E-07-8.23E-08-2.74E-08M), were assessed in duplicate in an individual test occasion in all the cell lines. MI-503 (Borkin et al., 2015) was used as reference compound and was tested at the same concentrations as the NCEs. 100% of proliferation is represented by the untreated cells (0.2% DMSO). The cell growth was monitored up to 4 days in culture.
(§6) MV4-11, MOLM-13 and HL-60 cells (see Table 2) were maintained in RPMI-1640 medium (Invitrogen, Cat. n. 618700, Batch n. 1965930) supplemented with 10% of Heat Inactivated FBS (Invitrogen, Cat n. 10500, Batch n. 08Q8078K) and 1% Pen-Strep (Invitrogen, Cat. N. 15140, Batch n. 1910859) and cultured at 37° C. in a humidified incubator with 5% CO2. All the cell lines grow in suspension and the cell density was maintained in a range of 2×10^5-1×10^6 viable cells/ml. Cells were pelleted at 130 g×5 min and conditioned medium was used to dilute the cell suspension.
(§7) Cells were plated in 96-well flat bottom microtiter plates at cell density of 15,000 cells/ml for HL-60, 1000 cells/ml for MOLM-13 and 10,000 cell/ml for MV4-11. Cells were treated with 0.2% DMSO (Sigma, D8418, batch n. SHBH4245V) or serial dilutions of compounds ([…]) in DMSO (0.2% final concentration). Cells were incubated in a 5% CO2 incubator at 37° C. for 4 days. A CellTiterGlo viability assay (Promega) was employed. Luminescence was read by using VictorV (Perkin Elmer) multilabel plate reader using the standard protocol for luminescence in 96 well plate. The experiment was performed in duplicate.
(§8) Data were expressed as % of inhibition compared to the 0.2% DMSO negative control, and was calculated as follows: % inhibition=100−[(RLU sample)×100/(RLU average controls*)]*cells containing 0.2% DMSO
(§9) CRCs were analysed by GraphPad and IC50 values were calculated by non-linear regression using 4 parameter-logistic equation. IC50 (μM) values were reported in the final data table. The curve fittings were performed leaving free all the parameters. Any constrain were reported in the results table.

MV4-11 (MLL-AF4) cells [2] = assay: as above; type: cell-based, human; settings: 4 days treatment
Text: as §1, §2, §3, §4, §5, §6, §7, §8, §9

HL-60 cells [3] = assay: as above; type: cell-based; settings: 4 days treatment
Text: as §1, §2, §3, §4, §5, §6, §7, §8, §9

MOLM-13 (MLL-AF9) cells [4] = assay: Long-term proliferation (LTP) assay, CellTiterGlo (Example 103); type: cell-based, human; settings: for IC50: Homo sapiens, MOLM-13 (MLL-AF9), LTP assay
Description: (§10) The day of the experiment (TO) all the cell line suspensions were counted by Cell Viability Analyser, Vi-CELL and properly diluted with fresh medium to obtain the cell density reported in the Test System paragraph.
(§11) Cells were tested after 4 passages after thawing.
(§12) 200 μL/well and 150 μL/well of cell suspension were added into the 0.4 µL/well and 0.3 μL/well compound plates, respectively. • Cell plate containing 200 μL/well suspension was incubated at 37° C. in a humidified incubator with 5% CO2. • From each well of the 150 µL/well cell assay plate, 100 μL were harvested and transferred into a 96-well Optiplate (Perkin Elmer, Cat. n. 6005290) and cell viability was measured as described in 4.3 paragraphs (TO). • After four days in culture (T4) 150 μL/well of fresh medium were added into a new […] copy compound plate. • From each well of the 200 μL/well cell assay plate: • 100 μL were sampled for the cell viability measurement as described in 4.3 paragraphs (T4). • 50 μL were harvested and added to the 150 μL/well compound plate prepared as described in the first point to dilute 1:4 the cell suspension. • The cell assay plate diluted and containing 200 µL/well suspension were incubated at 37° C. in a humidified incubator with 5% CO2.
(§13) At T7-T11-T14 it was proceeded as described in T4, with the exception that no further cell dilution was carried out at T14.
(§14) Plates containing the samples to be tested were equilibrated at room temperature for approximately 30 min and then 30 μL/well of the Promega CellTiterGlo® reagent were added. Contents will be mixed for 5 min on an orbital shaker to induce cell lysis and then incubated at room temperature for an additional 10 min to stabilize the luminescent signal.
(§15) Luminescence was read by using VictorV (Perkin Elmer) multilabel plate reader using the standard protocol for luminescence in 96 well plate.
(§16) Data were expressed as % of inhibition compared to the 0.2% DMSO negative control, and was calculated as follows: % inhibition=100−[(RLU sample)×100/(RLU average controls*)] • *cells containing 0.2% DMSO
(§17) CRCs were analysed by GraphPad and IC50 values were calculated by non-linear regression using 4 parameter-logistic equation. IC50 (M) values were reported in the final data table.

MV4-11 (MLL-AF4) cells [5] = assay: as above; type: cell-based, human; settings: for IC50: Homo sapiens, MV4-11 (MLL-AF4), LTP assay
Description: as §10, §11, §12, §13, §14, §15, §16, §17

RS4-11 (MLL-AF4) cells = assay: as above; type: cell-based; settings: for IC50: Homo sapiens, RS4-11 (MLL-AF4), LTP assay; for effect on cell viability at T4: RS4;11, increasing concentrations
Description: as §10, §11, §12, §13, §14, §15, §16, §17

HL-60 cells [6] = assay: as above; type: cell-based; settings: for IC50: Homo sapiens
Description: as §10, §11, §12, §13, §14, §15, §16, §17

[7] = Homo sapiens, 96 h, read-out: IC50
[8] = Homo sapiens, 96 h, read-out: pIC50 (converted)
[9] = 96 h, Day 4, read-out: Day 4 IC50
[10] = 168 h, Day 7, read-out: Day 7 IC50
[11] = 264 h, Day 11, read-out: Day 11 IC50
[12] = 336 h, Day 14, read-out: Day 14 IC50
[13] = 96 h, Day 4, LTP assay, read-out: Day 4 IC50
[14] = 168 h, Day 7, LTP assay, read-out: Day 7 IC50
[15] = 264 h, Day 11, LTP assay, read-out: Day 11 IC50
[16] = 336 h, Day 14, LTP assay, read-out: Day 14 IC50

| Compound | % max (MOLM-13 (MLL-AF9) cells [1]) | % max (MV4-11 (MLL-AF4) cells [2]) | % max (HL-60 cells [3]; CellTiterGlo) | IC50 (MOLM-13 (MLL-AF9) cells [4]; [9]) | IC50 (MOLM-13 (MLL-AF9) cells [4]; [10]) | IC50 (MOLM-13 (MLL-AF9) cells [4]; [11]) | IC50 (MOLM-13 (MLL-AF9) cells [4]; [12]) | IC50 (MV4-11 (MLL-AF4) cells [5]; [9]) | IC50 (MV4-11 (MLL-AF4) cells [5]; [10]) | IC50 (MV4-11 (MLL-AF4) cells [5]; [11]) | IC50 (MV4-11 (MLL-AF4) cells [5]; [12]) | IC50 (RS4-11 (MLL-AF4) cells; [9]) | IC50 (RS4-11 (MLL-AF4) cells; [10]) | IC50 (RS4-11 (MLL-AF4) cells; [11]) | IC50 (HL-60 cells [6]; [13]) | IC50 (HL-60 cells [6]; [14]) | IC50 (HL-60 cells [6]; [15]) | IC50 (HL-60 cells [6]; [16]) | effect on cell viability at T4 (RS4-11 (MLL-AF4) cells) | further results |
| --- | --- | --- | --- | --- | --- | --- | --- | --- | --- | --- | --- | --- | --- | --- | --- | --- | --- | --- | --- | --- |
| Cc1c(CN2CCC(Nc3ncnc4sc(CC(F)(F)F)cc34)CC2)ccc2c1cc(C#N)n2Cc1cn[nH]c1 [MI-503, reference compound] | 98% | 100% | 103% | – | – | – | – | – | – | – | – | – | – | – | – | – | – | – | – | pIC50 (MOLM-13 (MLL-AF9) cells [1]): 6.63; IC50 (MOLM-13 (MLL-AF9) cells [1]; read-out: IC50): 230 nM; pIC50 (MV4-11 (MLL-AF4) cells [2]): 6.73; IC50 (MV4-11 (MLL-AF4) cells [2]; read-out: IC50): 190 nM; pIC50 (HL-60 cells [3]; CellTiterGlo): 6.38; IC50 (HL-60 cells [3]; CellTiterGlo, read-out: IC50): 420 nM |
| C=CC(=O)NC1CN(c2ccnc(NC(=O)Nc3ccc(-c4cc5c(N6CCOCC6)ncnc5[nH]4)cc3)c2)C1 [Compound 1] | 85% | 98% | 80% | 830 nM | 450 nM | 500 nM | 720 nM | 760 nM | 580 nM | 550 nM | 380 nM | 550 nM | 112 nM | > 5000 nM | 790 nM | 600 nM | 780 nM | 890 nM | – | IC50 (MOLM-13 (MLL-AF9) cells [1]; [7]): 200 nM; IC50 (MOLM-13 (MLL-AF9) cells [1]; [8]): 200 nM; IC50 (MV4-11 (MLL-AF4) cells [2]; [7]): 150 nM; IC50 (MV4-11 (MLL-AF4) cells [2]; [8]): 151 nM; IC50 (HL-60 cells [3]; Homo sapiens, 96 h, CellTiterGlo, read-out: pIC50 (converted)): 195 nM; IC50 (HL-60 cells [3]; [7]): 190 nM |
| CN(C)C/C=C/C(=O)NC1CN(c2ccnc(NC(=O)Nc3ccc(-c4cc5c(N6CCOCC6)ncnc5[nH]4)cc3)c2)C1 [Compound 15] | – | – | – | 1020 nM | 410 nM | 320 nM | 330 nM | 650 nM | 460 nM | 350 nM | 350 nM | 1450 nM | 1550 nM | > 5000 nM | 1150 nM | 680 nM | 850 nM | 890 nM | fully inhibited | effect on cell viability at T4 (MOLM-13 (MLL-AF9) cells [4]; MOLM-13, T4, increasing concentrations): fully inhibited; effect on cell viability at T4 (MV4-11 (MLL-AF4) cells [5]; MV4-11, T4, increasing concentrations): fully inhibited; effect on cell viability at T4 (HL-60 cells [6]; T4, increasing concentrations): fully inhibited |
| C=CC(=O)NC1CN(c2ccnc(NC(=O)Nc3ccc(-c4nc5c(N6CCOCC6)nccc5[nH]4)cc3)c2)C1 [Compound 23] | – | – | – | – | – | 1410 nM | 3890 nM | – | 4370 nM | 1700 nM | 1230 nM | 1480 nM | 930 nM | > 5000 nM | – | – | > 5000 nM | – | showed an effect | IC50 (MOLM-13 (MLL-AF9) cells [4]; 96 h, heading: Day 4 IC50, Day 4, read-out: Day 4 IC50): > 5000 nM; IC50 (MOLM-13 (MLL-AF9) cells [4]; 168 h, heading: Day 7 IC50, Day 7, read-out: Day 7 IC50): > 5000 nM; change of effect with the time in culture (MOLM-13 (MLL-AF9) cells [4]; MOLM-13, along the 14 days in culture): increase of the effect; change of effect with the time in culture (MV4-11 (MLL-AF4) cells [5]; MV4-11, along the 14 days in culture): increase of the effect; activity up to T14 (HL-60 cells [6]; up to T14): absence of activity |
